Assay results taken from PubChem BioAssay AID330 (DTP/NCI, 2004).
“And” between values parts separate entries of the source, which are not always exact repeats. Equal values may be shown once. Toxic doses and inconclusive results are not listed. The calls were made as follows: active = survival T/C of 150% or more; inactive = T/C below 125% in these data.

Tested on: P388 leukemia ip, CD2F1 mice, survival T/C
Assay: NCI In Vivo Anticancer Drug Screen. Data for tumor model P388 Leukemia (intraperitoneal) in CD2F1 (CDF1) mice
Details: endpoint: median survival time, higher = longer survival
How it was run: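 Mice carrying the transplanted tumor received test compound or vehicle. Survival was recorded in each group, and the value is the treated-group measurement divided by that of the vehicle-treated control group.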

[1] = dose: 50.0 mg/kg/injection, schedule: Q01DX005 (ip), vehicle: Klucel (hydroxypropylcellulose) (HPC)
[2] = dose: 100.0 mg/kg/injection, schedule: Q01DX005 (ip), vehicle: Klucel (hydroxypropylcellulose) (HPC)
[3] = dose: 200.0 mg/kg/injection, schedule: Q01DX005 (ip), vehicle: Klucel (hydroxypropylcellulose) (HPC)
[4] = dose: 100.0 mg/kg/injection, schedule: Q01DX005 (ip), vehicle: saline with Tween-80
[5] = dose: 200.0 mg/kg/injection, schedule: Q01DX005 (ip), vehicle: saline with Tween-80
[6] = dose: 50.0 mg/kg/injection, schedule: Q01DX005 (ip), vehicle: saline
[7] = dose: 50.0 mg/kg/injection, schedule: Q01DX009 (ip), vehicle: saline
[8] = dose: 100.0 mg/kg/injection, schedule: Q01DX009 (ip), vehicle: saline
[9] = dose: 200.0 mg/kg/injection, schedule: Q01DX009 (ip), vehicle: saline
[10] = dose: 50.0 mg/kg/injection, schedule: Q01DX009 (ip), vehicle: saline with Tween-80
[11] = dose: 100.0 mg/kg/injection, schedule: Q01DX009 (ip), vehicle: saline with Tween-80
[12] = dose: 200.0 mg/kg/injection, schedule: Q01DX009 (ip), vehicle: saline with Tween-80
[13] = dose: 25.0 mg/kg/injection, schedule: Q01DX009 (ip), vehicle: saline
[14] = dose: 25.0 mg/kg/injection, schedule: Q01DX009 (ip), vehicle: saline with Tween-80
[15] = dose: 60.0 mg/kg/injection, schedule: Q01DX005 (ip), vehicle: Klucel (hydroxypropylcellulose) (HPC)
[16] = dose: 120.0 mg/kg/injection, schedule: Q01DX005 (ip), vehicle: Klucel (hydroxypropylcellulose) (HPC)

Measured: T/C

COC(=O)C(C)NC(=O)C(CCSC)NC(=O)OC(C)(C)C (stereo unspecified)
inactive: dose: 25.0 mg/kg/injection, schedule: Q01DX005 (ip), vehicle: Klucel (hydroxypropylcellulose) (HPC) 98 % of control | [1] 100 % of control and 102 % of control | [2] 95 % of control | [3] 104 % of control

COc1cccc2c(=O)c(COC(C)=O)c(C)[nH]c12
inactive: dose: 60.0 mg/kg/injection, schedule: Q01DX005 (ip), vehicle: saline 112 % of control | dose: 120.0 mg/kg/injection, schedule: Q01DX005 (ip), vehicle: saline 112 % of control | dose: 240.0 mg/kg/injection, schedule: Q01DX005 (ip), vehicle: saline 112 % of control

O=c1[nH]cnc2cc3[nH]ncc3cc12
inactive: dose: 1.5 mg/kg/injection, schedule: Q01DX005 (ip), vehicle: saline with Tween-80 95 % of control | dose: 3.0 mg/kg/injection, schedule: Q01DX005 (ip), vehicle: saline with Tween-80 87 % of control | dose: 6.25 mg/kg/injection, schedule: Q01DX005 (ip), vehicle: saline with Tween-80 97 % of control | [4] 89 % of control | [5] 88 % of control

O=C1C=CC(=Nc2cc(Cl)c(O)c(Cl)c2)C=C1Cl
inactive: dose: 12.5 mg/kg/injection, schedule: Q01DX005 (ip), vehicle: saline 96 % of control | dose: 25.0 mg/kg/injection, schedule: Q01DX005 (ip), vehicle: saline 100 % of control | [6] 93 % of control

COc1ccc(/C=C/c2ccnnc2)cc1
inactive: [7] 99 % of control and 102 % of control | [8] 108 % of control | [9] 99 % of control and 94 % of control

O=C(O)c1ccccc1-c1ccccc1[N+](=O)[O-]
inactive: [7] 88 % of control | [8] 97 % of control | [9] 97 % of control

OCCN1CCN(c2c3ccccc3nc3ccccc23)CC1
inactive: dose: 25.0 mg/kg/injection, schedule: Q04DX003 (ip), vehicle: saline 100 % of control | dose: 50.0 mg/kg/injection, schedule: Q04DX003 (ip), vehicle: saline 100 % of control

CCOSN1CCOCC1
inactive: dose: 25.0 mg/kg/injection, schedule: Q04DX002 (ip), vehicle: saline 101 % of control | dose: 50.0 mg/kg/injection, schedule: Q04DX002 (ip), vehicle: saline 101 % of control | dose: 100.0 mg/kg/injection, schedule: Q04DX002 (ip), vehicle: saline 100 % of control and 93 % of control

c1ccc(C2SCCN2c2ccccc2)cc1 (stereo unspecified)
inactive: [7] 91 % of control | [8] 90 % of control | [9] 89 % of control

COc1cc2c(cc1Br)C(=O)C(Br)(Br)CCC2Br (stereo unspecified)
inactive: dose: 50.0 mg/kg/injection, schedule: Q01DX009 (ip), vehicle: Klucel (hydroxypropylcellulose) (HPC) 118 % of control | dose: 100.0 mg/kg/injection, schedule: Q01DX009 (ip), vehicle: Klucel (hydroxypropylcellulose) (HPC) 118 % of control | dose: 200.0 mg/kg/injection, schedule: Q01DX009 (ip), vehicle: Klucel (hydroxypropylcellulose) (HPC) 114 % of control

NC1(P(=O)(O)O)CCCCC1
inactive: [10] 116 % of control | [11] 111 % of control | [12] 111 % of control

CC1=NOC(=O)C1N=Nc1ccc(Br)cc1C (stereo unspecified)
inactive: dose: 100.0 mg/kg/injection, schedule: Q04DX002 (ip), vehicle: saline with Tween-80 101 % of control | dose: 100.0 mg/kg/injection, schedule: Q05DX002 (ip), vehicle: saline with Tween-80 99 % of control | dose: 200.0 mg/kg/injection, schedule: Q04DX002 (ip), vehicle: saline with Tween-80 98 % of control | dose: 200.0 mg/kg/injection, schedule: Q05DX002 (ip), vehicle: saline with Tween-80 99 % of control | dose: 400.0 mg/kg/injection, schedule: Q04DX002 (ip), vehicle: saline with Tween-80 102 % of control

C1=CC2CCC1C1CSCC21 (stereo unspecified)
inactive: dose: 12.5 mg/kg/injection, schedule: Q01DX009 (ip), vehicle: saline 98 % of control | [13] 100 % of control | [7] 87 % of control and 92 % of control

CC1(C)N=C(N)N=C(N)N1c1ccc(OCC(=O)Nc2ccccc2)c(Cl)c1
inactive: [14] 100 % of control | dose: 25.0 mg/kg/injection, schedule: Q04DX003 (ip), vehicle: saline with Tween-80 100 % of control | [10] 104 % of control | dose: 50.0 mg/kg/injection, schedule: Q04DX003 (ip), vehicle: saline with Tween-80 100 % of control | [11] 109 % of control | dose: 100.0 mg/kg/injection, schedule: Q04DX003 (ip), vehicle: saline with Tween-80 113 % of control

N/C(=N\Cl)C(Cl)(Cl)Cl
inactive: dose: 16.5 mg/kg/injection, schedule: Q01DX009 (ip), vehicle: saline 113 % of control | [13] 106 % of control | dose: 37.5 mg/kg/injection, schedule: Q01DX009 (ip), vehicle: saline 111 % of control

C[C@@H](O)[C@@H]1NC(=O)[C@H]([C@@H](C)O)NC1=O
inactive: [6] 99 % of control | dose: 100.0 mg/kg/injection, schedule: Q01DX005 (ip), vehicle: saline 99 % of control | dose: 200.0 mg/kg/injection, schedule: Q01DX005 (ip), vehicle: saline 99 % of control

COc1ccc(Oc2c(OC)cc(NCCCCCN3C(=O)c4ccccc4C3=O)c3ncccc23)cc1
inactive: [10] 88 % of control | [11] 97 % of control | [12] 89 % of control

COc1ccc(-n2c(-c3ccc(Cl)cc3)csc2=N)c(OC)c1
inactive: [14] 97 % of control | [10] 106 % of control | [7] 114 % of control | [11] 100 % of control | [8] 109 % of control

C[As](C)SCC1OC(n2cnc3c(N)ncnc32)C2OC(C)(C)OC12 (stereo unspecified)
inactive: dose: 12.5 mg/kg/injection, schedule: Q01DX009 (ip), vehicle: distilled water + Tween-80 101 % of control | dose: 25.0 mg/kg/injection, schedule: Q01DX009 (ip), vehicle: distilled water + Tween-80 100 % of control | dose: 50.0 mg/kg/injection, schedule: Q01DX009 (ip), vehicle: distilled water + Tween-80 110 % of control | dose: 100.0 mg/kg/injection, schedule: Q01DX009 (ip), vehicle: distilled water + Tween-80 110 % of control | dose: 200.0 mg/kg/injection, schedule: Q01DX009 (ip), vehicle: distilled water + Tween-80 101 % of control

CC(C)CC([N+](C)(C)C)P(=O)([O-])O (stereo unspecified)
inactive: [8] 100 % of control | [9] 95 % of control | dose: 400.0 mg/kg/injection, schedule: Q01DX009 (ip), vehicle: saline 100 % of control

C=C(C#N)N(C)c1ccccc1
inactive: dose: 3.12 mg/kg/injection, schedule: Q01DX005 (ip), vehicle: Klucel (hydroxypropylcellulose) (HPC) 94 % of control | dose: 6.25 mg/kg/injection, schedule: Q01DX005 (ip), vehicle: Klucel (hydroxypropylcellulose) (HPC) 111 % of control | dose: 12.5 mg/kg/injection, schedule: Q01DX005 (ip), vehicle: Klucel (hydroxypropylcellulose) (HPC) 94 % of control

O=C1CSC(c2ccc(O)cc2)N1c1nncs1 (stereo unspecified)
inactive: dose: 60.0 mg/kg/injection, schedule: Q01DX005 (ip), vehicle: saline with Tween-80 107 % of control | dose: 120.0 mg/kg/injection, schedule: Q01DX005 (ip), vehicle: saline with Tween-80 104 % of control | dose: 240.0 mg/kg/injection, schedule: Q01DX005 (ip), vehicle: saline with Tween-80 98 % of control

Cc1cccc2c(SCCCCCCSc3c4ccccc4nc4c(C)cccc34)c3ccccc3nc12
inactive: [15] 90 % of control | [16] 92 % of control | dose: 240.0 mg/kg/injection, schedule: Q01DX005 (ip), vehicle: Klucel (hydroxypropylcellulose) (HPC) 91 % of control

CCCCc1c(O)c(N=NC(=O)C[N+](C)(C)C)c2ccccc2c1O
inactive: dose: 50.0 mg/kg/injection, schedule: Q01DX005 (ip), vehicle: saline with Tween-80 104 % of control | [4] 110 % of control | [5] 108 % of control

CCOc1ccccc1N=Nc1c(C)nn(C(=S)S)c1OCC
inactive: dose: 60.0 mg/kg/injection, schedule: Q01DX005 (ip), vehicle: Klucel + Tween-80 97 % of control | dose: 120.0 mg/kg/injection, schedule: Q01DX005 (ip), vehicle: Klucel + Tween-80 95 % of control | dose: 240.0 mg/kg/injection, schedule: Q01DX005 (ip), vehicle: Klucel + Tween-80 100 % of control

COC(=O)c1nc(N)nc(C(=O)OC)c1C(=O)c1ccccc1
inactive: [15] 100 % of control | [16] 93 % of control

CC1(C)OC2(C)CCC1C1C2N1C(=O)c1ccccc1 (stereo unspecified)
inactive: [1] 94 % of control | [2] 102 % of control | [3] 102 % of control
